Tested on: Alcaligenes sp. KS-85 creatine amidinohydrolase, SEQ ID NO: 2 (recombinant, produced in E. coli)
Test: Km determination of creatine amidinohydrolase from Lineweaver-Burk plots
Type: biochemical
Details: urea formed quantified, 50 mM phosphate buffer pH 7.7, 37° C.
Procedure: The measurement of enzyme activity was conducted under the following conditions. 1 U of enzyme activity is defined as the amount which causes formation of 1 μmol of urea per minute.
6.63 g of creatine is dissolved in 500 ml of 50 mM phosphate buffer, pH 7.7.
10 g of .rho.-dimethylaminobenzaldehyde is dissolved in 500 ml ethanol (guaranteed reagent) and then mixed with a mixture of 575 ml deionized water and 75 ml conc. hydrochloric acid.
1) 0.9 ml of Solution 1 is pre-incubated as the substrate at 37° C. for 5 minutes.
2) 0.1 ml enzyme solution (adjusted to about 1-2 U/ml) is mixed with the substrate and allowed to react at 37° C. for 10 minutes.
3) Then, 2 ml of Solution 2 is mixed with the reaction solution.
4) Then, the mixture is allowed to stand at 25° C. for 20 minutes, and the absorbance at 435 nm is determined (OD sample).
5) As the blank, 0.9 ml of Solution 1 is incubated at 37° C. for 10 minutes and then 2 ml of Solution 2 and 0.1 ml enzyme solution are mixed with Solution 1, and the mixture is allowed to stand at 25° C. for 20 minutes, and the absorbance at 435 nm is determined (OD blank).
U/ml=ΔOD×18.06*×dilution degree

CN(CC(=O)O)C(=N)N [creatine]
Km: 13 mM

Reference: patent US5932466A, “Creatine amidinohydrolase gene, a novel recombinant DNA, and a process for producing creatine amidinohydrolase” (Kikkoman Corporation, priority 1994, dated 1999)
